The results in this text go back to patent publication US20090215758A1, “Use of 2,5-Disubstituted Thiazol-4-One Derivatives in Drugs” (Gruenenthal GmbH, priority 2005, published 2009).

Counter-ions that a name gives are not always drawn.

The target in assay [1] is T1, vanilloid receptor 1 (VR1/TRPV1) of the rat species (Rattus norvegicus, UniProt O35433).
T1 construct: The spinal column is removed from beheaded rats; from tissue; host or cells: primary cells from rat dorsal root ganglia (DRGs)
T1 sequence (O35433 whole entry): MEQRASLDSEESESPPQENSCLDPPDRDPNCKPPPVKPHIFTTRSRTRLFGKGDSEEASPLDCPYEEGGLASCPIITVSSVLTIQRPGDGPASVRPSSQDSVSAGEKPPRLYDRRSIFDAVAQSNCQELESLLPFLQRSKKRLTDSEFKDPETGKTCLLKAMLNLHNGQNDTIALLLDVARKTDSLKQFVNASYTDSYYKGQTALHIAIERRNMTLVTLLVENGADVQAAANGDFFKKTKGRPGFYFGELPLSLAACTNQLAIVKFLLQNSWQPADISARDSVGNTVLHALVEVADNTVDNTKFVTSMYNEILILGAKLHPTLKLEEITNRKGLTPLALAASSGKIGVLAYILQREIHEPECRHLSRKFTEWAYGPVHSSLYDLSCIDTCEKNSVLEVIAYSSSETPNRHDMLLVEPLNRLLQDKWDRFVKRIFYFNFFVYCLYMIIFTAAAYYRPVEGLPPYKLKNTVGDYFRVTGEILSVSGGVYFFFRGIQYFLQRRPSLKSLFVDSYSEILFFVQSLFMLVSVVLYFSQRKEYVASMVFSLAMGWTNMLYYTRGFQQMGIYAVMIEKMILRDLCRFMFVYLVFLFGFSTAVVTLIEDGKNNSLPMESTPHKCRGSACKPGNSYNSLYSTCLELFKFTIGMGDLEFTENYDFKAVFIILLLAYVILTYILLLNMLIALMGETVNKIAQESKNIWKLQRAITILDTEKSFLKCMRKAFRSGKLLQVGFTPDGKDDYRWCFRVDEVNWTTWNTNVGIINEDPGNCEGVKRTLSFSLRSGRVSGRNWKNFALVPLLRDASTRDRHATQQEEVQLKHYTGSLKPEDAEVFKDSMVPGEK
Nature of the assay: Functional study on vanilloid receptor 1, FLIPR Ca2+ assay in rat dorsal root ganglia cells. The format is cell-based. As to conditions: for inhibition at 10 µM: 5 min incubation, then 100 nM capsaicin, relative to maximum inhibition with 10 μM capsaicin, read-out: VR1 (rat) (% inhibition compared to 10 μM CP); for activation at 10 µM: read-out: VR1 (rat) (% stimulation compared to 10 μM CP); for EC50: unit inferred. The method, then:
The agonistic or antagonistic action of the substances to be studied on the vanilloid receptor 1 (VR1/TRPV1) of the rat species can be determined with the following assay. In this assay, the Ca^2+ current through the receptor channel is quantified with the aid of a Ca^2+-sensitive dye (Fluo-4 type, Molecular Probes Europe BV, Leiden the Netherlands) in a fluorescent imaging plate reader (FLIPR, Molecular Devices, Sunnyvale, USA).
Complete medium: 50 ml HAMS F12 Nutrient Mixture (Gibco Invitrogen GmbH, Karlsruhe, Germany) with 10% by volume of FCS (fetal calf serum, Gibco Invitrogen GmbH, Karlsruhe, Germany, heat-inactivated);
2 mM L-glutamine (Sigma, Munich, Germany);
1% by weight of AA solution (antibiotic/antimycotic solution, PAA, Pasching, Austria) and 25 ng/ml of NGF medium (2.5 S, Gibco Invitrogen GmbH, Karlsruhe, Germany)
Cell culture plate: poly-D-lysine-coated, black 96-hole plates with a clear bottom (96 well black/clear plate, BD Biosciences, Heidelberg, Germany) are additionally coated with laminin (Gibco Invitrogen GmbH, Karlsruhe, Germany) by diluting laminin to a concentration of 100 μg/ml with PBS (Ca—Mg-free PBS, Gibco Invitrogen GmbH, Karlsruhe, Germany). Aliquots having a concentration of 100 μg/ml of laminin are withdrawn and stored at −20° C. The aliquots are diluted with PBS in a ratio of 1:10 to 10 μg/ml of laminin and in each case 50 μl of the solution are pipetted into a well of the cell culture plate. The cell culture plates are incubated at 37° C. for at least two hours, the supernatant solution is removed by suction and the wells are each washed twice with PBS. The coated cell culture plates are stored with supernatant PBS which is not removed until directly before the application of the cells.
The spinal column is removed from beheaded rats and placed directly into cold HBSS buffer (Hank's buffered saline solution, Gibco Invitrogen GmbH, Karlsruhe, Germany), i.e. placed in an ice bath, which has been admixed with 1% by volume of an AA solution (antibiotic/antimycotic solution, PAA, Pasching, Austria). The spinal column is severed longitudinally and removed from the spinal canal together with fasciae. Subsequently, the dorsal root ganglia (DRGs) are removed and in turn stored in cold HBSS buffer admixed with 1% by volume of an AA solution. The DRGs freed completely of blood residues and spinal nerves are in each case transferred to 500 μl of cold type 2 collagenase (PAA, Pasching, Austria) and incubated at 37° C. for 35 minutes. […] After complete incubation, the enzyme solution is cautiously pipetted off and the remaining DRGs are each suspended with 500 μl of complete medium.
The DRGs are each suspended repeatedly, drawn through cannulas No. 1, No. 12 and No. 16 by means of a syringe and transferred to 50 ml Falcon tubes which are made up to 15 ml with complete medium. The contents of each Falcon tube are in each case filtered through a 70 μm Falcon filter insert and centrifuged at 1200 revolutions and room temperature for 10 minutes. The resulting pellet is in each case taken up in 250 μl of complete medium and the cell count is determined.
The number of cells in the suspension is adjusted to 3 times 10^5 per ml and in each case 150 μl of this suspension are added to one well of the cell culture plates coated as described above.
Subsequently, the cells are laden with 2 μM Fluo-4 and 0.01% by volume of Pluronic F127 (Molecular Probes Europe BV, Leiden, the Netherlands) in HBSS buffer (Hank's buffered saline solution, Gibco Invitrogen GmbH, Karlsruhe, Germany) at 37° C. for 30 min, washed 3× with HBSS buffer and, after a further incubation of 15 minutes, used in the FLIPR assay at room temperature for Ca^2+ measurement. The Ca^2+-dependent fluorescence is measured before and after addition of substances (λex=488 nm, λem=540 nm). The quantification is effected by the measurement of the highest fluorescence intensity (FC, fluorescence counts) over the time.

The target of assay [2] is T2, VR1 (human) (Homo sapiens, UniProt Q8NER1).
T2 construct: expressed in transfected cells; host or cells: CHO K1 cells (ECACC), stably transfected
T2 sequence (Q8NER1 whole entry): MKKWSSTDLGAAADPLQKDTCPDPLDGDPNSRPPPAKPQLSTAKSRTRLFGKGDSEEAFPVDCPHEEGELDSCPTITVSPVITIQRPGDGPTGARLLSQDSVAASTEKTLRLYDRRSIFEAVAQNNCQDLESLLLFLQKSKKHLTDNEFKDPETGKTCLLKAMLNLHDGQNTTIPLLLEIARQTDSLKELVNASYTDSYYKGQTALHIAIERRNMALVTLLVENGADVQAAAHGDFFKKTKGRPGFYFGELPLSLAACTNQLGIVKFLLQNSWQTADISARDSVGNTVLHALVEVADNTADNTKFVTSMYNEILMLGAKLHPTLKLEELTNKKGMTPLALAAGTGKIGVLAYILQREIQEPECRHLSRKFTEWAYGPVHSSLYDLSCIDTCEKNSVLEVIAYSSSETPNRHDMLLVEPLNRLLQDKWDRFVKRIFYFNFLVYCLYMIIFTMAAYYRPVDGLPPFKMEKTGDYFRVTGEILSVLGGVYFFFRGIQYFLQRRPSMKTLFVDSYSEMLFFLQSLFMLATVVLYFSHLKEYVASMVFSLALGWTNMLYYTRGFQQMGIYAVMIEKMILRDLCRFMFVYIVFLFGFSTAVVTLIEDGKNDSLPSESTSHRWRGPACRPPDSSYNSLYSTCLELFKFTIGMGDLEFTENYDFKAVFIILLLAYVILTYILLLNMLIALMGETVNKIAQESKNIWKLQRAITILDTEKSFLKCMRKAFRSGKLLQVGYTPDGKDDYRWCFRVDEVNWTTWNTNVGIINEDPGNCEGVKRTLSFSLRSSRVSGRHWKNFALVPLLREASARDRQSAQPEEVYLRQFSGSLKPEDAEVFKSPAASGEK
The assay can be described thus: Functional study on vanilloid receptor (VR1), FLIPR Ca2+ assay in CHO K1 cells stably transfected with the VR1 gene. The format is cell-based. Particulars: for inhibition at 10 µM / activation at 10 µM: CHO-K1, test compound 10 μM; for inhibition at 10 µM: 5 min incubation, then 100 nM capsaicin, compared to 10 μM CP; for activation at 10 µM: Ca2+ signal relative to 10 μM capsaicin (CP), read-out: VR1 (human) (% stimulation compared to 10 μM CP); for EC50: unit inferred. The source says:
The agonistic or antagonistic action of the substances to be tested on vanilloid receptor (VR1) can also be determined with the assay which follows. In this assay, the Ca^2+ current through the channel is quantified with the aid of a Ca^2+-sensitive dye (Fluo-4 type, Molecular Probes, Europe BV, Leiden, the Netherlands) in a fluorescent imaging plate reader (FLIPR, Molecular Devices, Sunnyvale, USA).
Chinese hamster ovary cells (CHO K1 cells, European Collection of Cell Cultures (ECACC) Great Britain) are transfected stably with the VR1 gene. For functional studies, these cells are plated out onto poly-D-lysine-coated black 96-well plates with a clear bottom (BD Biosciences, Heidelberg, Germany) in a density of 25 000 cells/well. The cells are incubated overnight at 37° C. and 5% CO2 in a culture medium (Ham's Nutrient Mixture F12, 10% by volume of FCS (fetal calf serum), 18 μg/ml of L-proline). The next day, the cells are incubated with Fluo-4 (Fluo-4 2 μM, Pluronic F127 0.01% by volume, Molecular Probes in HBSS (Hank's buffered saline solution), Gibco Invitrogen GmbH, Karlsruhe, Germany) at 37° C. for 30 minutes. Subsequently, the plates are washed 3 times with HBSS buffer and, after a further incubation of 15 minutes at room temperature, used for Ca^2+ measurement in FLIPR. The Ca^2+-dependent fluorescence is measured before and after addition of the substances to be studied (wavelength λex=488 nm, λem=540 nm). The quantification is effected by measuring the highest fluorescence intensity (FC, fluorescence counts) over the time.
The FLIPR protocol consists of 2 substance additions. First, the substances to be tested (10 μM) are pipetted onto the cells and the Ca current is compared with the control (capsaicin 10 μM) (% activation based on the Ca^2+ signal after addition of 10 μM capsaicin). After incubation for 5 minutes, 100 nM capsaicin is applied and the current of Ca^2+ is likewise determined.

[3] abbreviates: test compound 10 μM, Ca2+ signal relative to 10 μM capsaicin (CP).

The inhibition is the change of the read-out against control, counted positive when it falls. For `O=C1N=C(N2CCOCC2)SC1=CC=CSc1ccccc1` [Example 12, 2-morpholin-4-yl-5-(3-phenylsulfanylallylidene)thiazol-4-one], the values for the inhibition at 10 µM in assay [1] (test compound 10 μM) and in assay [2] were 68.4% and 54.3%, respectively. The results for the activation at 10 µM in assay [1] (setting [3]) and in assay [2] were 54% and 55.4%, respectively.
The matching figures for `COc1ccc(C=C2SC(N3CCOCC3)=NC2=O)cc1OCc1ccccc1` [Example 13, 5-(3-benzyloxy-4-methoxybenzylidene)-2-morpholin-4-ylthiazol-4-one]: 46.2%, 11.1%, 42.1% and 6.15%.
As a reminder, the EC50 is the midpoint of the concentration-response curve. Regarding `Cc1ccc(C=C2SC(N3CCSCC3)=NC2=O)cc1` [Example 14, 5-(4-methylbenzylidene)-2-thiomorpholin-4-ylthiazol-4-one hydrobromide], the inhibition at 10 µM in assay [1] (test compound 10 μM) came to 82.1%; in assay [2] it was 89.4%. The activation at 10 µM in assay [1] (setting [3]) was found to be 108%; in assay [2] it was 107%. For the same compound, the EC50 in assay [1] is 0.95 µM; in assay [2] it was 5.17 µM.
As for `O=C1N=C(N2CCOCC2)SC1=Cc1ccc(Oc2ccccc2)cc1` [Example 17, 2-morpholin-4-yl-5-(4-phenoxybenzylidene)thiazol-4-one], the inhibition at 10 µM worked out at 91.1% in assay [1] (test compound 10 μM) and 19.6% in assay [2]. Further, the activation at 10 µM in assay [1] (setting [3]) stood at 120%; in assay [2] it was 46%. For the same compound, the EC50 in assay [1] was 6.36 µM; in assay [2], 17.8 µM.
As to `O=C1N=C(N2CCOCC2)SC1=Cc1cccc(Oc2ccccc2)c1` [Example 18, 2-morpholin-4-yl-5-(3-phenoxybenzylidene)thiazol-4-one], the inhibition at 10 µM in assay [1] (test compound 10 μM) turned out to be 88%; in assay [2], 79.2%. In addition, the values for the activation at 10 µM in assay [1] (setting [3]) and in assay [2] were 144% and 139%, respectively. For the same compound, the EC50 is 1.29 µM in assay [1] and 3.65 µM in assay [2].
Take `Cc1ccc(C=CC=C2SC(N3CCOCC3)=NC2=O)cc1` [Example 19, 2-morpholin-4-yl-5-(3-p-tolylallylidene)thiazol-4-one]: the results for the inhibition at 10 µM in assay [1] (test compound 10 μM) and in assay [2] were 31.4% and 10.8%, respectively. The activation at 10 µM in assay [1] (setting [3]) worked out at 11.7%; in assay [2], 8.82%. In addition, the values for the EC50 in assay [1] and in assay [2] were 7.76 µM and 13 µM, respectively.
Consider `O=C1N=C(N2CCOCC2)SC1=Cc1ccc(OCc2ccccc2)cc1` [Example 21, 5-(4-benzyloxybenzylidene)-2-morpholin-4-ylthiazol-4-one], for which the values for the inhibition at 10 µM in assay [1] (test compound 10 μM) and in assay [2] were 50.1% and 28.5%, respectively. The activation at 10 µM in assay [1] (setting [3]) came out at 55.8%; in assay [2] it was 36.5%. In addition, the EC50 in assay [1] was 6.59 µM; in assay [2], 8.51 µM.
With `O=C1N=C(N2CCSCC2)SC1=Cc1ccccc1C(F)(F)F` [Example 22, 2-thiomorpholin-4-yl-5-(2-trifluoromethylbenzylidene)thiazol-4-one], the inhibition at 10 µM came out at 88.1% in assay [1] (test compound 10 μM) and 80.8% in assay [2]. In addition, the figures for the activation at 10 µM in assay [1] (setting [3]) and in assay [2] were 116% and 64%, respectively. Also, the EC50 in assay [1] turned out to be 8.48 µM; in assay [2] it was 9.06 µM.
For `O=C1N=C(N2CCSCC2)SC1=Cc1ccc(OC(F)(F)F)cc1` [Example 24, 2-thiomorpholin-4-yl-5-(4-trifluoromethoxybenzylidene)thiazol-4-one], the inhibition at 10 µM came out at 91.3% in assay [1] (test compound 10 μM) and 61.6% in assay [2]. Also, the activation at 10 µM in assay [1] (setting [3]) was 110%; in assay [2], 61.3%. For the same compound, the figures for the EC50 in assay [1] and in assay [2] were 11.9 µM and over 25 µM, respectively.
Regarding `O=C1N=C(N2CCSCC2)SC1=CC=Cc1ccccc1` [Example 25, 5-(3-phenylallylidene)-2-thiomorpholin-4-ylthiazol-4-one], in assay [1] (test compound 10 μM), the inhibition at 10 µM is 87.2%. Further, the “VR1 (rat) (% stimulation compared to 10 μM CP)” value in assay [1] (setting [3]) is 80.77%. Besides, in assay [2], the inhibition at 10 µM was determined as 37.6% and the activation at 10 µM worked out at 29.1%.
Consider `Cc1ccc(C=C2SC(N3CCN(c4ncccc4Cl)CC3)=NC2=O)cc1` [Example 30, 2-[4-(3-chloropyridin-2-yl)piperazin-1-yl]-5-(4-methylbenzylidene)thiazol-4-one], for which the values for the inhibition at 10 µM in assay [1] (test compound 10 μM) and in assay [2] were 97% and 73.3%, respectively. For the same compound, the figures for the activation at 10 µM in assay [1] (setting [3]) and in assay [2] were 0.92% and 0.06%, respectively.
As to `CC(=CC=C1SC(N2CCOCC2)=NC1=O)c1ccc(C)cc1` [Example 33, 2-morpholin-4-yl-5-(3-p-tolylbut-2-enylidene)thiazol-4-one], the inhibition at 10 µM in assay [1] (test compound 10 μM) worked out at 64.8%; in assay [2] it was 14.7%. Besides, the activation at 10 µM in assay [1] (setting [3]) was found to be 49.6%; in assay [2], 25.7%.
Taken in the same sequence, the figures for `CC(=CC=C1SC(N2CCOCC2)=NC1=O)c1ccc(C(C)(C)C)cc1` [Example 34, 5-[3-(4-tert-butylphenyl)but-2-enylidene]-2-morpholin-4-ylthiazol-4-one] were 88%, 89.3%, 101% and 111%.
Regarding `O=C1N=C(N2CCOCC2)SC1=Cc1ccc(OC(F)(F)F)cc1` [Example 36, 2-morpholin-4-yl-5-(4-trifluoromethoxybenzylidene)thiazol-4-one], the inhibition at 10 µM was determined as 101% in assay [1] (test compound 10 μM) and 68.8% in assay [2]. Besides, the activation at 10 µM in assay [1] (setting [3]) stood at 67.7%; in assay [2] it was 47.4%.
